Measurements reported in PubChem BioAssay AID504687 (Sanford-Burnham Center for Chemical Genomics, 2011).
The source made the active and inactive calls. How the calls were made is not given here.

These compounds were tested against Ubiquitin-conjugating enzyme E2 N (Homo sapiens) (UniProt P61088) (assay: analogue potency against UBC13 ubiquitin chains – biochemical, TR-FRET, SAR follow-up (AID 504687)). Conditions: UBC13 polyubiquitin formation.
Sequence of Ubiquitin-conjugating enzyme E2 N (Homo sapiens) (P61088 whole entry, looked up): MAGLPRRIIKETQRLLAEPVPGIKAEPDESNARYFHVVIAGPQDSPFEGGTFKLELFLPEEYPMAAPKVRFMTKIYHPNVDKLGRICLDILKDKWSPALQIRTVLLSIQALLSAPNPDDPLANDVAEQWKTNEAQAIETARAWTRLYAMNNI
O=C(NCCCN1CCN(c2ccccc2)CC1)C1CCCN(c2ncnc3c2nc2n3CCCCC2)C1 (stereo not given) showed an IC50 of 4.28 µM. CCOc1cccc2sc(N(CCCN(C)C)C(=O)c3ccc(S(=O)(=O)N4CCc5ccccc5C4)cc3)nc12 was tested, and the IC50 was 4.1 µM. O=C(CCCCCN1C(=O)c2cccc([N+](=O)[O-])c2C1=O)NCc1ccccc1 showed an IC50 of 16.4 µM. In the case of COc1ccc(OC)c2sc(N(CCCN(C)C)C(=O)c3ccc(S(=O)(=O)N4CCc5ccccc5C4)cc3)nc12, the IC50 is reported as 0.79 µM. COc1cc2nc(N(CCCN(C)C)C(=O)c3ccc(S(=O)(=O)N4CCc5ccccc5C4)cc3)sc2cc1OC gave an IC50 of 3.79 µM. CC(C)(C)c1ccc(OCC(O)CN2CCN(CCN3C(=O)c4cccc5cccc(c45)C3=O)CC2)cc1 (stereo not given) was tested, and the IC50 was 9.47 µM. Compound Cc1cc(NC(=O)Cn2c(=O)n(CCCCC(=O)NC3CCN(Cc4ccccc4)CC3)c(=O)c3ccccc32)n[nH]1 has an IC50 of 12.9 µM. CN(C)CCCN(C(=O)c1ccc2c(c1)CCCC2)c1nc2ccc(Cl)cc2s1 was tested, and the IC50 was 10.7 µM. For O=C1c2cccc3cccc(c23)C(=O)N1CCN1CCN(CC(O)COc2ccc3c(c2)OCO3)CC1 (stereo not given), the IC50 was 6.68 µM. For Cc1cccc(C)c1NC(=O)Cn1c(=O)n(CCCC(=O)NC2CCN(Cc3ccccc3)CC2)c(=O)c2ccccc21, the IC50 was 1.69 µM. With CCOc1cccc2sc(N(CCCN(C)C)C(=O)c3ccc(S(=O)(=O)N(CC)Cc4ccccc4)cc3)nc12 the IC50 was 6.56 µM. In the case of Cc1cc(C)c2sc(N(CCCN(C)C)C(=O)c3ccc(S(=O)(=O)N4CCc5ccccc5C4)cc3)nc2c1, the IC50 is reported as 2.28 µM. Cc1ccc2nc(N(CCCN(C)C)C(=O)c3ccc4c(c3)CCCC4)sc2c1 gave an IC50 of 10.5 µM. In the case of O=C(CCCCCN1C(=O)c2ccccc2C1=O)N1CCN(c2ccc([N+](=O)[O-])cc2)CC1, the IC50 is reported as > 100 µM (inactive). Compound Cc1ccc(OCC(O)CN2CCN(CCN3C(=O)c4cccc5cccc(c45)C3=O)CC2)c(C)c1 (stereo not given) has an IC50 of 4.75 µM. CN(C)CCCN(C(=O)c1ccc(S(=O)(=O)N2CCCCC2)cc1)c1nc2cc3c(cc2s1)OCO3 gave an IC50 of 8.13 µM. Work on O=C(CCCn1c(=O)c2ccccc2n(Cc2ccc(Cl)cc2)c1=O)NC1CCN(Cc2ccccc2)CC1 yielded an IC50 of 0.35 µM. Cc1ccc(NC(=O)C2CCN(c3ncnc4c3nc3n4CCCCC3)CC2)cc1Cl gave an IC50 of 3.62 µM. In the case of CC(NC(=O)CCCCCN1C(=O)c2ccccc2C1=O)c1nc(-c2ccccc2)no1 (stereo not given), the IC50 is reported as 10.6 µM. With CN1CCN(CCCNC(=O)c2ccc(/C=C3\Oc4ccccc4N(Cc4ccc(Cl)cc4)C3=O)cc2)CC1 the IC50 was 4.33 µM. Compound Cc1ccc(C)c(CN2CCC(CNC(=O)C3CCCN(c4ncnc5c4nc4n5CCCCC4)C3)CC2)c1 (stereo not given) has an IC50 of 3.42 µM. O=C1c2cccc3cccc(c23)N1Cc1ccc(F)cc1 gave an IC50 of 3.57 µM. Compound O=C(CCCCCN1C(=O)c2ccccc2C1=O)NCc1ccccc1 has an IC50 of 15.8 µM. Compound COc1ccc(C)c2sc(N(CCCN(C)C)C(=O)c3ccc(S(=O)(=O)N(C)C)cc3)nc12 has an IC50 of 8.72 µM. O=C1c2cccc3cccc(c23)C(=O)N1CCN1CCN(CC(O)COc2ccc(C3CCCCC3)cc2)CC1 (stereo not given) was tested, and the IC50 was 6.02 µM. In the case of O=C(c1ccco1)N1CCN(C(=O)C2CCN(c3ncnc4c3nc3n4CCCCC3)CC2)CC1, the IC50 is reported as “inactive”. In the case of O=C(CCCCCN1C(=O)c2ccccc2C1=O)NCc1ccco1, the IC50 is reported as 18.1 µM. With O=C(CCCn1c(=O)c2ccccc2n(Cc2cccc([N+](=O)[O-])c2)c1=O)NC1CCN(Cc2ccccc2)CC1 the IC50 was 0.34 µM. In the case of Cc1c(NC(=O)CCCN2C(=O)c3cccc4cccc(c34)C2=O)c(=O)n(-c2ccccc2)n1C, the IC50 is reported as 2.65 µM. O=C(CCCCCN1C(=O)c2ccccc2C1=O)NCc1ccccn1 was tested, and the IC50 was “inactive”. N#Cc1ccccc1Cn1c(=O)n(CCCC(=O)NC2CCN(Cc3ccccc3)CC2)c(=O)c2ccccc21 was tested, and the IC50 was 0.63 µM. O=C(CCCCCN1C(=O)c2cccc3cccc(c23)C1=O)NCCO gave an IC50 of 12.7 µM. CCC1CCCCN1CCCNC(=O)C1CCN(c2ncnc3c2nc2n3CCCCC2)CC1 (stereo not given) showed an IC50 of 7.28 µM. O=C(NCC1CCN(Cc2ccccc2F)CC1)C1CCCN(c2ncnc3c2nc2n3CCCCC2)C1 (stereo not given) showed an IC50 of 10.7 µM. In the case of O=C1c2cccc3cccc(c23)C(=O)N1CC1CCN(CC(O)COCc2ccc3c(c2)OCO3)CC1 (stereo not given), the IC50 is reported as 1.9 µM. For Cc1cc(OCC(O)CN2CCN(CCN3C(=O)c4cccc5cccc(c45)C3=O)CC2)ccc1C(C)C (stereo not given), the IC50 was 9.39 µM. With CC(NC(=O)CCCCCN1C(=O)c2cccc([N+](=O)[O-])c2C1=O)c1ccccc1 (stereo not given) the IC50 was “inactive”. With CC1CCCCN1C(=O)C1CCN(c2ncnc3c2nc2n3CCCCC2)CC1 (stereo not given) the IC50 was “inactive”. Work on Cc1ccc(C)c(OCC(O)CN2CCN(CCN3C(=O)c4cccc5cccc(c45)C3=O)CC2)c1 (stereo not given) yielded an IC50 of 5.46 µM. O=C(CCCCCN1C(=O)c2cccc3cccc(c23)C1=O)NCc1cccnc1 was tested, and the IC50 was 5.08 µM. With Cc1ccc2c(c1)C1CN(C)CCC1N2C(=O)CCCN1C(=O)c2cccc3cccc(c23)C1=O (stereo not given) the IC50 was 3.92 µM. For O=C(NCC1CCN(Cc2ccc(F)cc2)CC1)C1CCCN(c2ncnc3c2nc2n3CCCCC2)C1 (stereo not given), the IC50 was 3.53 µM. Compound CN(C)CCCN(C(=O)c1ccc(S(=O)(=O)N2CCCC2)cc1)c1nc2ccc(Br)cc2s1 has an IC50 of 6.86 µM. In the case of COc1ccc(NC(=O)CCCCCN2C(=O)c3cccc([N+](=O)[O-])c3C2=O)cc1, the IC50 is reported as > 100 µM (inactive). For O=C1c2cccc3cccc(c23)C(=O)N1CC1CCN(CC(O)COc2ccc3ccccc3c2)CC1 (stereo not given), the IC50 was 3.32 µM. NNC(=O)c1ccc(CN2C(=O)c3cccc4cccc2c34)cc1 was tested, and the IC50 was 1.78 µM. Compound Cc1[nH]c2c(Cl)c(Cl)ccc2c1CCNC(=O)CCCCCN1C(=O)c2ccccc2C1=O has an IC50 of 0.67 µM. Compound C=CCc1ccccc1OCC(O)CN1CCN(CCN2C(=O)c3cccc4cccc(c34)C2=O)CC1 (stereo not given) has an IC50 of 11.7 µM. Compound O=C(CCCCCN1C(=O)c2ccccc2C1=O)NCCc1nc2ccccc2[nH]1 has an IC50 of 10.2 µM. Work on O=C1c2cccc3cccc(c23)C(=O)N1CCN1CCN(CC(O)COc2ccccc2)CC1 (stereo not given) yielded an IC50 of 17.6 µM. COc1ccc2sc(N(CCCN(C)C)C(=O)c3ccc(S(=O)(=O)N4CCc5ccccc5C4)cc3)nc2c1 was tested, and the IC50 was 5.62 µM. With O=C(C1CCN(c2ncnc3c2nc2n3CCCCC2)CC1)N1CCN(Cc2ccccc2)CC1 the IC50 was 6.45 µM. Work on CC(=O)Nc1ccc(OCC(O)CN2CCN(CCN3C(=O)c4cccc5cccc(c45)C3=O)CC2)cc1 (stereo not given) yielded an IC50 of 17.4 µM. Work on CN(C)CCCN(C(=O)c1ccc(C(=O)c2ccccc2)cc1)c1nc2cc3c(cc2s1)OCO3 yielded an IC50 of 6.57 µM. Work on O=C1c2cccc3cccc(c23)C(=O)N1CCN1CCN(CC(O)COc2ccc(Cl)cc2)CC1 (stereo not given) yielded an IC50 of 0.9 µM. For COc1ccc2sc(N(CCCN(C)C)C(=O)c3ccc(S(=O)(=O)N(C)Cc4ccccc4)cc3)nc2c1, the IC50 was 5.89 µM. In the case of CC(=O)c1ccc(OCC(O)CN2CCN(CCN3C(=O)c4cccc5cccc(c45)C3=O)CC2)cc1 (stereo not given), the IC50 is reported as 2.28 µM. CCCN1CCN(C(=O)C2CCN(c3ncnc4c3nc3n4CCCCC3)CC2)CC1 gave an IC50 of 3.42 µM. In the case of COc1cc(/C=C/c2cc[n+](C)cc2)ccc1OCC(=O)Nc1ccc(Cl)c(Cl)c1, the IC50 is reported as 3.5 µM. In the case of O=C1c2cccc3cccc(c23)C(=O)N1CCN1CCN(CC(O)COc2ccc3ccccc3c2)CC1 (stereo not given), the IC50 is reported as 1.35 µM. In the case of O=C(CCCCCN1C(=O)c2ccccc2C1=O)Nc1ccc(S(=O)(=O)Nc2ncccn2)cc1, the IC50 is reported as > 100 µM (inactive). With CC1(C)Cc2c(sc(NC(=O)COc3ccc(Cl)cc3Cl)c2C(N)=O)C(C)(C)N1 the IC50 was 1.66 µM. CN(C)CCCN(C(=O)c1ccc(S(=O)(=O)N2CCc3ccccc3C2)cc1)c1nc2ccc(F)cc2s1 gave an IC50 of 8.1 µM. In the case of Cc1cc(NS(=O)(=O)c2ccc(NC(=O)CCCCCN3C(=O)c4ccccc4C3=O)cc2)nc(C)n1, the IC50 is reported as > 100 µM (inactive). For COCCOC(=O)c1ccc(NC(=O)CCCCCN2C(=O)c3ccccc3C2=O)cc1, the IC50 was > 100 µM (inactive).
